One data set deals with tyrosinase. Kind of data set: Test of tyrosinase activity inhibition (L-DOPA substrate, absorbance at 475 nm). Type of data set: biochemical. Particulars: Fig. 2; for tyrosinase inhibitory activity compared with 3H2P: at the same concentration as 3H2P; for tyrosinase inhibitory activity: free acid, concentration of 0.1 to 0.5 mg/ml. How it is done: A solution of 6 mM L-DOPA, an aqueous solution of the test compound adjusted to a given concentration, and a phosphate buffer (pH 6.8) were mixed at a ratio of 2:2:1 by volume. The resulting substrate mixture (1.0 ml) was mixed with 0.2 ml of a solution of 0.017 mg/ml tyrosinase (Sigma), and the enzyme reaction was initiated at 37°C. The absorbance of the enzyme reaction solution was measured at 475 nm 0 and 3 minutes after the initiation of the reaction. The test group subjected to the enzyme reaction in the same manner described above, except that the test compound was not included, was designate as the blank test group. On the basis of the measured absorbance, the inhibition rate of tyrosinase activity was determined using the formula shown below. […] Inhibition rate of tyrosinase activity (%) = (1−(The difference in the absorbance of the test compound in the enzyme reaction solution between 0 minutes and 3 minutes after the initiation of the reaction)/(The difference in the absorbance of the blank in the enzyme reaction solution between 0 min and 3 min)) × 100 [formula]

Data set [1] relates to Mouse-derived B16 melanoma cells 4A5. Briefly: Test for melanin production inhibition. Type of data set: cell-based. The following applies: for melanin amount relative to the melanin amount of the control group: concentration of 5 µg/ml, control group = 100, day 6 of culture; for melanin production inhibitory activity: concentrations of 1, 5, and 10 µg/ml, compared with 3H2P and arbutin, Fig. 1; for melanin production inhibitory activity, free acid compared with triethylamine salt: free acid (Fig. 1A) vs triethylamine salt (Fig. 1B). How it is done: Mouse-derived B16 melanoma cells 4A5 (RIKEN) were seeded on a 6-well plate with the use of DMEM medium containing 10% FBS to a cell density of 5.0 × 10^4 cells/well (day 0 of culture), and culture was conducted at 37°C in the presence of 5% CO2 for 24 hours. On the following day, the cell-seeded medium was exchanged with a medium supplemented with the test compound at a given concentration (day 1 of culture). The medium was exchanged with a fresh medium every other day from day 2 and thereafter. The cells were recovered via treatment with trypsin on day 6 of culture, and melanin was extracted using an aqueous solution of 1 N sodium hydroxide. The absorbance of the melanin extract was measured at 405 nm, and the melanin amount was determined using a calibration curve prepared with the use of a melanin standard sample. In addition, the protein amount of the cells recovered in the manner described below was determined using the DC Protein Assay Kit (BIO-RAD) and employed as the cell count index. […] In the figure, the melanin amount and the cell count of test groups to which the test compounds had been added are represented relative to the measured melanin amount and cell count of the control group to which no test compound had been added (concentration: 0), which is designated as 100.

Data set [2] can be described thus: Stability test in aqueous citrate buffer solution (reversed-phase HPLC quantification). Type of data set: physicochemical. Particulars: for percentages of compounds remaining in the test solutions after storage: 3 weeks, 20 mM citrate buffer solution (pH 6.0), 0.1% (weight/volume). How it is done: 3H2P phosphate monoester (1) (not according to the invention) and 3H2P phosphate bisester (2) (according to the invention) in the form of free acid were dissolved in a 20 mM citrate buffer solution (pH 6.0) to a concentration of 0.1% (weight/volume). The test solutions were stored at 4°C, 25°C, or 40°C for 3 weeks. 3H2P phosphate monoester (1) or 3H2P phosphate bisester (2) contained in the stored test solutions were quantitatively analyzed via reversed-phase HPLC (Inertsil® ODS-3, 5 µm, 4.6 × 250 mm, GL Sciences). For comparative example, the similar test was carried out in the manner described above with the use of 3H2P. […]

Read-outs that look alike come from different tables or passages of the source.

Turning to `O=c1occcc1OP(=O)(O)O` [3H2P phosphate monoester (1), 3-hydroxy-2-pyrone phosphate monoester], in the data set with tyrosinase, the “tyrosinase inhibitory activity compared with 3H2P” value is on record as “lower than the tyrosinase inhibitory activity of 3H2P” and the tyrosinase inhibitory activity entry is “low tyrosinase inhibitory activity”. Besides, in data set [1], the “melanin amount relative to the melanin amount of the control group” value is “approximately 50%”; the “melanin production inhibitory activity” value is listed as “slightly lower than that of 3H2P but equivalent to that of arbutin”; the “melanin production inhibitory activity, free acid compared with triethylamine salt” value was “approximately equivalent melanin production inhibitory activity”. Besides, the “stability in weak-acidic to neutral water, compared with non-phosphorylated 3H2P” value in data set [2] is reported as “remarkably improved stability”.
For `O=c1occcc1O` [Compound 3H2P, 3-hydroxy-2-pyrone, reference compound], the “percentages of compounds remaining in the test solutions after storage” value (“percentages of compounds remaining” below) in data set [2] (4°C) worked out at 98.4%; in data set [2] (25°C), 87.3%; in data set [2] (40°C), 53.2%.
On to `O=c1occcc1OP(=O)(O)Oc1cccoc1=O` [3H2P phosphate bisester (2), 3-hydroxy-2-pyrone phosphate bisester], for which, in the data set with tyrosinase, the “tyrosinase inhibitory activity compared with 3H2P” value is “lower than the tyrosinase inhibitory activity of 3H2P” and the tyrosinase inhibitory activity result is recorded as “low tyrosinase inhibitory activity”. Also, in data set [1], the “melanin amount relative to the melanin amount of the control group” value is listed as “approximately 50%”; the “melanin production inhibitory activity” value was “slightly lower than that of 3H2P but equivalent to that of arbutin”; the “melanin production inhibitory activity, free acid compared with triethylamine salt” value is reported as “approximately equivalent melanin production inhibitory activity”. Also, the “percentages of compounds remaining” value in data set [2] (4°C) was determined as 100%. Also, the “percentages of compounds remaining” value in data set [2] (25°C) was 100%. For the same compound, the “percentages of compounds remaining” value in data set [2] (40°C) is 99.3%. Moreover, the “stability in weak-acidic to neutral water, compared with non-phosphorylated 3H2P” value in data set [2] (summary in words of Table 1) is reported as “remarkably improved stability”.

(Values after patent EP2990408B1, “NOVEL WHITENING AGENT” (Nichirei Biosciences Inc., priority 2013, dated 2014).)
